Article PMC5061470, “Promiscuous targeting of bromodomains by bromosporine identifies BET proteins as master regulators of primary transcription response in leukemia” (Science Advances, 2016)
“Also recorded” adds a separate entry of the source.

Assays:
[1] = target: MC4 (h) (Homo sapiens, UniProt P32245); assay: biochemical; conditions: read-out: % Inhibition of Control Specific Binding
[2] = target: CysLT1 (LTD4) (h) (Homo sapiens, UniProt Q9Y271); assay: biochemical; conditions: read-out: % Inhibition of Control Specific Binding
[3] = target: V2 (h) (Homo sapiens, UniProt P30518); assay: biochemical; conditions: read-out: % Inhibition of Control Specific Binding
[4] = target: full-length GFP-tagged BRD4 in U2OS cells (Homo sapiens, UniProt O60885); assay type: cell-based
[5] = target: M2 (h) (Homo sapiens, UniProt P08172); assay: biochemical; conditions: read-out: % Inhibition of Control Specific Binding
[6] = tested on: MV4;11; assay: cells; assay type: cell-based, human; conditions: Homo sapiens, MV4-11, 72 h, read-out: IC50, cell proliferation
[7] = target: alpha 2C (h) (Homo sapiens, UniProt P18825); assay: biochemical; conditions: read-out: % Inhibition of Control Specific Binding
[8] = target: BRPF1B (Homo sapiens, UniProt P55201); assay: biochemical; assay type: binding
[9] = target: 5-HT3 (h) (Homo sapiens, UniProt P46098); assay: biochemical; conditions: read-out: % Inhibition of Control Specific Binding
[10] = target: 5-HT6 (h) (Homo sapiens, UniProt P50406); assay: biochemical; conditions: read-out: % Inhibition of Control Specific Binding
[11] = target: NK2 (h) (Homo sapiens, UniProt P21452); assay: biochemical; conditions: read-out: % Inhibition of Control Specific Binding
[12] = target: B2 (h) (Homo sapiens, UniProt P30411); assay: biochemical; conditions: read-out: % Inhibition of Control Specific Binding
[13] = tested on: AMPA
[14] = tested on: OCI-AML3; assay: cells; assay type: cell-based, human; conditions: Homo sapiens, OCI-AML-3, 72 h, read-out: IC50, cell proliferation
[15] = target: T1, PB1(5) (Homo sapiens, UniProt Q86U86); assay type: binding
T1 construct: Human BRDs were subcloned into bacteria-expressing vectors; made in house; host or cells: bacteria

[16] = tested on: KASUMI-1; assay: cells; assay type: cell-based, human; conditions: Homo sapiens, Kasumi 1, 72 h, read-out: IC50, cell proliferation
[17] = tested on: K562, KASUMI-1, MV4;11, and OCI-AML3; assay type: cell-based, human
[18] = target: mu (MOP) (h) (Homo sapiens, UniProt P35372); assay: biochemical; conditions: read-out: % Inhibition of Control Specific Binding
[19] = tested on: Ca2+ channel (L, verapamil site) (phenylalkylamine); assay type: binding
[20] = target: UT (h) (Homo sapiens, UniProt Q9UKP6); assay: biochemical; conditions: read-out: % Inhibition of Control Specific Binding
[21] = target: T2, CREBBP (Homo sapiens, UniProt Q92793); assay type: binding
T2 construct: Human BRDs were subcloned into bacteria-expressing vectors; made in house; host or cells: bacteria

[22] = target: alpha 2A (h) (Homo sapiens, UniProt P08913); assay: biochemical; conditions: read-out: % Inhibition of Control Specific Binding
[23] = target: EP300 (Homo sapiens, UniProt Q09472); assay: biochemical; assay type: binding
[24] = target: CB2 (h) (Homo sapiens, UniProt P34972); assay: biochemical; conditions: read-out: % Inhibition of Control Specific Binding
[25] = target: T3, TAF1(1) (Homo sapiens, UniProt P21675); assay type: binding
T3 construct: Human BRDs were subcloned into bacteria-expressing vectors; made in house; host or cells: bacteria
T3 sequence (P21675 1397-1505 limits assumed): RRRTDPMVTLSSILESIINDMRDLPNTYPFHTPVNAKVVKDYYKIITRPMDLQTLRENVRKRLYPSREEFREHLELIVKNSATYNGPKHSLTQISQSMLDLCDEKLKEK

[26] = target: AT2 (h) (Homo sapiens, UniProt P50052); assay: biochemical; conditions: read-out: % Inhibition of Control Specific Binding
[27] = target: BB3 (h) (Homo sapiens, UniProt P32247); assay: biochemical; conditions: read-out: % Inhibition of Control Specific Binding
[28] = target: T4, BAZ2A (Homo sapiens, UniProt Q9UIF9); assay type: binding
T4 construct: Human BRDs were subcloned into bacteria-expressing vectors; made in house
T4 sequence (Q9UIF9 1793-1897 limits assumed): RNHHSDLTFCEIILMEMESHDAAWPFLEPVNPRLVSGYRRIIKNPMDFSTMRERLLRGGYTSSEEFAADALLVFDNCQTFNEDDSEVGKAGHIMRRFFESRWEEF

[29] = target: D1 (h) (Homo sapiens, UniProt P21728); assay: biochemical; conditions: read-out: % Inhibition of Control Specific Binding
[30] = target: CECR2 (Homo sapiens, UniProt Q9BXF3); assay type: binding
[31] = target: 5-HT1A (h) (Homo sapiens, UniProt P08908); assay: biochemical; conditions: read-out: % Inhibition of Control Specific Binding

Sequence of EP300 (Q09472 1049-1156): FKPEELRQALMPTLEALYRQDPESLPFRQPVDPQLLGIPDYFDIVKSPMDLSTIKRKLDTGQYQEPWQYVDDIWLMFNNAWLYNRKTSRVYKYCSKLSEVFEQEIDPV
Sequence of BRPF1B (P55201 628-732): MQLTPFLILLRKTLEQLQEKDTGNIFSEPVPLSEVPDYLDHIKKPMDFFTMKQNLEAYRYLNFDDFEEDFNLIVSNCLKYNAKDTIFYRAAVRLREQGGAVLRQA
T2 sequence (Q92793 1085-1192 limits assumed): as the sequence (Q09472 1049-1156) above, with S47N, I73V, Y93F, S98A counted along it
Sequence of CECR2 (Q9BXF3 434-538 limits assumed): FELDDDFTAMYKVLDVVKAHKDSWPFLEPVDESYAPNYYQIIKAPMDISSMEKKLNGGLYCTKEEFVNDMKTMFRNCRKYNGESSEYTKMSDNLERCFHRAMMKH
T1 sequence (Q86U86 653-763 limits assumed): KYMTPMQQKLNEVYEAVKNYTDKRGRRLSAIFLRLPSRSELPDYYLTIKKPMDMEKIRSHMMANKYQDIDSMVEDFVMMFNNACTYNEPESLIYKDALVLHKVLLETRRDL
Sequence of mu (MOP) (h) (P35372 whole entry): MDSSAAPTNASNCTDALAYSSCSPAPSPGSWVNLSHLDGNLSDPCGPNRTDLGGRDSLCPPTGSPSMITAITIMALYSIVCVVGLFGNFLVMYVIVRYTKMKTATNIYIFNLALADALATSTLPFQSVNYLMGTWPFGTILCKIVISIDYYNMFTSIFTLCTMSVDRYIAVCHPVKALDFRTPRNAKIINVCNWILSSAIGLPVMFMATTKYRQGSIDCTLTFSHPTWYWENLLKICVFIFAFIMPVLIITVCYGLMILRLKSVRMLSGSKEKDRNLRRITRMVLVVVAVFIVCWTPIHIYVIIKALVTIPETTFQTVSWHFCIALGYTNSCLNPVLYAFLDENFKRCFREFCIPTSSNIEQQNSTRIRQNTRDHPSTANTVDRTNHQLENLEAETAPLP
Sequence of BB3 (h) (P32247 whole entry): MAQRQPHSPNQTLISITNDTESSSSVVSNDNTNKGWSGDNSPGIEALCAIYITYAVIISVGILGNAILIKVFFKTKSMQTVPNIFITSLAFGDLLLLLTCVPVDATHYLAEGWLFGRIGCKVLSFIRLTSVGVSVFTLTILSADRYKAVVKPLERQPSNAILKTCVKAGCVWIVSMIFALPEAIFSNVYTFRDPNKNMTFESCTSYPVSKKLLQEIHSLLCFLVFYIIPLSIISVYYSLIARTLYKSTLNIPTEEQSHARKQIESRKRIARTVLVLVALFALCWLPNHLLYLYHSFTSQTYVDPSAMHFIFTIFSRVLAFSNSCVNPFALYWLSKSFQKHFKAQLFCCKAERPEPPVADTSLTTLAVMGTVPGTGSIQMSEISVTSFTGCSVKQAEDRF
Sequence of CB2 (h) (P34972 whole entry): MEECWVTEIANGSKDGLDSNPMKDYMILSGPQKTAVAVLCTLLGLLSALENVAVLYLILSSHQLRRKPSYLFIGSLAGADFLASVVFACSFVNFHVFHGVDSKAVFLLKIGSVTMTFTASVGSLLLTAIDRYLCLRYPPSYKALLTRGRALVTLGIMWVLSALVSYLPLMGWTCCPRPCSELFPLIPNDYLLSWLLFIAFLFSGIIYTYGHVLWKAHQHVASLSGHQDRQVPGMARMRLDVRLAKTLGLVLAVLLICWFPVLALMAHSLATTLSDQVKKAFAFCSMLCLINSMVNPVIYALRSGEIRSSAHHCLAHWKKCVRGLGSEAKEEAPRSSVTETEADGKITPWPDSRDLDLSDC
Sequence of AT2 (h) (P50052 whole entry): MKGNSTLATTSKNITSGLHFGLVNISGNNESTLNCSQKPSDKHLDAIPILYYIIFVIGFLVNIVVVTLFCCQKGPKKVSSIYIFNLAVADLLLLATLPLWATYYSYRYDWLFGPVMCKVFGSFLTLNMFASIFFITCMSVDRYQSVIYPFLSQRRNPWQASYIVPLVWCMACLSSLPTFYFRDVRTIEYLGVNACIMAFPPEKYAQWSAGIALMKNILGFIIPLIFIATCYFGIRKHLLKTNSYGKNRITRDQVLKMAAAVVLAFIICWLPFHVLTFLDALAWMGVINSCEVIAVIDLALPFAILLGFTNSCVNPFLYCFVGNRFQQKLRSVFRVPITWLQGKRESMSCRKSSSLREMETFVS
Sequence of B2 (h) (P30411 whole entry): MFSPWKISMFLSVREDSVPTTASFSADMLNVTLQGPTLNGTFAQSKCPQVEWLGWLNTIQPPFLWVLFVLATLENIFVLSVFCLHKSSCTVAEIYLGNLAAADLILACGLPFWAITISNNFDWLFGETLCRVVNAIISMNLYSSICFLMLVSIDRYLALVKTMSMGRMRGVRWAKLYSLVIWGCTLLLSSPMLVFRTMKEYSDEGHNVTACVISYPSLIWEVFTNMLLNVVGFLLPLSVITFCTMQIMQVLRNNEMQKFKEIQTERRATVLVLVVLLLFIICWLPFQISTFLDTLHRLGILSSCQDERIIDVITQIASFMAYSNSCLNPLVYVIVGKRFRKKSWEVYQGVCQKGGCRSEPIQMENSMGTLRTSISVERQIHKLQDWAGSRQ
Sequence of alpha 2C (h) (P18825 whole entry): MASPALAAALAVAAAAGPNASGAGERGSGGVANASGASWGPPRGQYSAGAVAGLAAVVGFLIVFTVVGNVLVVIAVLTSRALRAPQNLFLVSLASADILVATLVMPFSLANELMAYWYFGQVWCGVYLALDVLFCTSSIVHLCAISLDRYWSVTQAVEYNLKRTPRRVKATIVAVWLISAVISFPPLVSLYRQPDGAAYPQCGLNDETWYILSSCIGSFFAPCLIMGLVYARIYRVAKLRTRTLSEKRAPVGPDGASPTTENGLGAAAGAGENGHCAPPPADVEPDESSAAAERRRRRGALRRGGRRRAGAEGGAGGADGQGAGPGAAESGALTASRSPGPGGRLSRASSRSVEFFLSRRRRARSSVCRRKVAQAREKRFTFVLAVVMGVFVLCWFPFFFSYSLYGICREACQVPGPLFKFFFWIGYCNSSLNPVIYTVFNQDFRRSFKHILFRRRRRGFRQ
Sequence of V2 (h) (P30518 whole entry): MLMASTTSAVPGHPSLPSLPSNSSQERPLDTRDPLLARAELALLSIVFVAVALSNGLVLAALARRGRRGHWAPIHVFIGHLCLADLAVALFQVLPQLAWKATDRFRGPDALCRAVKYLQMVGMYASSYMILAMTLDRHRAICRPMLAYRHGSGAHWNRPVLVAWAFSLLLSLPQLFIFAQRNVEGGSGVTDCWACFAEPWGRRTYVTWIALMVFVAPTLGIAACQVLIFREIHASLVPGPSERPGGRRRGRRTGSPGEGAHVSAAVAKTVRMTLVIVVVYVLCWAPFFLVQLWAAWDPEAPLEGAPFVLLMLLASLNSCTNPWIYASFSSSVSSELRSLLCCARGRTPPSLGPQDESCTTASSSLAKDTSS
Sequence of UT (h) (Q9UKP6 whole entry): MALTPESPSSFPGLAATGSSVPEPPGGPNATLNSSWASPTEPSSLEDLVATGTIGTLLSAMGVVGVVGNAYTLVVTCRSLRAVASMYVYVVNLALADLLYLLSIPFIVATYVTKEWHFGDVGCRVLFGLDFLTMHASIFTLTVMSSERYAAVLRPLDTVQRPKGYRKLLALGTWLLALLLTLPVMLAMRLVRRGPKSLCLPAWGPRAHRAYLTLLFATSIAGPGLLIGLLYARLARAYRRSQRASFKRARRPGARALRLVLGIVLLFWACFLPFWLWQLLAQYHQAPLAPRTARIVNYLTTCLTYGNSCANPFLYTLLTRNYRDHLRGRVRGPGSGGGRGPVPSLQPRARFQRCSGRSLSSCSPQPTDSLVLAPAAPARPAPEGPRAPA
Sequence of NK2 (h) (P21452 whole entry): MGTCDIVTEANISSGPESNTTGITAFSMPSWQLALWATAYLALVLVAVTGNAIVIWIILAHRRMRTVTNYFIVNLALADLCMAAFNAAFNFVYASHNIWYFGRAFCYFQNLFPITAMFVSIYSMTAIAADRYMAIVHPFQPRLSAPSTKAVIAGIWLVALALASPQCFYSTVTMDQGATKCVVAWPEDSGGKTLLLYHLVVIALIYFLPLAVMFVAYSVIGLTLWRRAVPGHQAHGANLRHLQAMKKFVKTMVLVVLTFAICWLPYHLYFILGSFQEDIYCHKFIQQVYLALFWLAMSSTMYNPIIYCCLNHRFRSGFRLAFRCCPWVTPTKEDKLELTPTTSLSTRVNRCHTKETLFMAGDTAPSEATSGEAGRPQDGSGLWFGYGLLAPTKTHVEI
Sequence of 5-HT6 (h) (P50406 whole entry): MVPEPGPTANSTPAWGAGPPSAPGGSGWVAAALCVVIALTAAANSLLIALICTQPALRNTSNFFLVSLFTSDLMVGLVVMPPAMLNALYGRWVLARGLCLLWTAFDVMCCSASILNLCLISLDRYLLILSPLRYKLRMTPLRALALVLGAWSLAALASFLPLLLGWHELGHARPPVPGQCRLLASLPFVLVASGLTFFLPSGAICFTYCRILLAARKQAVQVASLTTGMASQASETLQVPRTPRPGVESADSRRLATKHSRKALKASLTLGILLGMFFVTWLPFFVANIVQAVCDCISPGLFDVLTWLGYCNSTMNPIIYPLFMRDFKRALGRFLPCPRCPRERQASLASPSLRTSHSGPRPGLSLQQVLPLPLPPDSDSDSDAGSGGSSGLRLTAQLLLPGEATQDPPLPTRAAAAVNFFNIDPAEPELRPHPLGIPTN
Sequence of MC4 (h) (P32245 whole entry): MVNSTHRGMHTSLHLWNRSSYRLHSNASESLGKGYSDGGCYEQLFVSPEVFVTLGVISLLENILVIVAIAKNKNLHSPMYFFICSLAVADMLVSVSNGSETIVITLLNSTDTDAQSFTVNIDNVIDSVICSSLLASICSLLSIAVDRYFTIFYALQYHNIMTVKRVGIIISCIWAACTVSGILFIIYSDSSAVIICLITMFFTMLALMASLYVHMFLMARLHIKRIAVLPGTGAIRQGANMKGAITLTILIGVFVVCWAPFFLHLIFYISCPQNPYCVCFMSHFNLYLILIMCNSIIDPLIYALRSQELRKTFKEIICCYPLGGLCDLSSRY

With `CCOC(=O)Nc1cc(-c2ccc(C)c(NS(C)(=O)=O)c2)nn2c(C)nnc12` [BSP, ethyl (3-methyl-6-(4-methyl-3-(methylsulfonamido)phenyl)-[1,2,4]triazolo[4,3-b]pyridazin-8-yl)carbamate] the inhibition at 10 µM [1] was -23%, the inhibition at 10 µM [2] was -20% and the inhibition at 10 µM [3] was -11%. The “FRAP, chromatin interaction of BRD4” value [4] was “displacement of proteins from chromatin”, the inhibition at 10 µM [5] was 12% and the IC50 [6] was 579 nM. The inhibition at 10 µM [7] was 3%, the Kd [8] was 312 ± 11.2 nM and the N [8] was 1.00 ± 0.003. The TΔS [8] was 2.45 kcal/mol, the ΔG [8] was -8.57 kcal/mol and the “ΔH^obs” value [8] was -6.12 ± 0.021 kcal/mol. It also gave an inhibition at 10 µM [9] of 3%, an inhibition at 10 µM [10] of -2% and an inhibition at 10 µM [11] of 6%. For the same compound, the inhibition at 10 µM [12] was -1%, the “% Inhibition of Control Specific Binding” value [13] was 11 and the IC50 [14] was 399 nM. The N [15] was 1.09 ± 0.053, the TΔS [15] was 3.20 kcal/mol and the ΔG [15] was -6.39 kcal/mol. The “ΔH^obs” value [15] was -3.19 ± 0.183 kcal/mol, the IC50 [16] was 207 nM and the colony formation [17] was “decreased; also recorded: severely inhibited”. The inhibition at 10 µM [18] was 1%, the “% Inhibition of Control Specific Binding” value [19] was -8 and the inhibition at 10 µM [20] was -9%. For the same compound, the N [21] was 1.03 ± 0.011, the TΔS [21] was 4.72 kcal/mol and the “ΔH^obs” value [21] was -2.91 ± 0.041 kcal/mol. It also gave an inhibition at 10 µM [22] of 7%, a Kd [23] of 7190 nM and an N [23] of 0.97 ± 0.036. For the same compound, the TΔS [23] was 1.13 kcal/mol, the ΔG [23] was -6.78 kcal/mol and the “ΔH^obs” value [23] was -5.65 ± 0.265 kcal/mol. For the same compound, the inhibition at 10 µM [24] was 12%, the N [25] was 0.98 ± 0.010 and the TΔS [25] was 3.60 kcal/mol. The ΔG [25] was -6.94 kcal/mol, the “ΔH^obs” value [25] was -3.34 ± 0.046 kcal/mol and the inhibition at 10 µM [26] was 2%. It also gave an inhibition at 10 µM [27] of 7%, an N [28] of 1.05 ± 0.025 and a TΔS [28] of 4.12 kcal/mol. For the same compound, the ΔG [28] was -7.16 kcal/mol, the “ΔH^obs” value [28] was -3.04 ± 0.095 kcal/mol and the inhibition at 10 µM [29] was -13%. It also gave an N [30] of 1.04 ± 0.002, a TΔS [30] of -6.60 kcal/mol and a ΔG [30] of -10.68 kcal/mol. For the same compound, the “ΔH^obs” value [30] was -17.28 ± 0.062 kcal/mol and the inhibition at 10 µM [31] was -11%.
